Experimental findings from PubChem BioAssay AID248 (DTP/NCI, 2004) are described below.

Where “and” joins values, the source holds several entries; their conditions need not be identical. Equal entries are not always repeated. Inconclusive results and toxic doses are left out.

This assay deals with L1210 leukemia ip in BDF1 mice, survival T/C. Briefly: NCI In Vivo Anticancer Drug Screen. Data for tumor model L1210 Leukemia (intraperitoneal) in B6D2F1 (BDF1) mice. The note with it: endpoint: mean survival time, higher = longer survival. An outline of the steps: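 Antitumor effect is assessed in tumor-bearing animals. Survival in the compound arm is compared with a vehicle-dosed control arm and expressed as their quotient.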

The mark [1] stands for this setting: dose: 100.0 mg/kg/injection, schedule: Q01DX001 (ip), vehicle: saline.
[2] abbreviates: dose: 400.0 mg/kg/injection, schedule: Q04DX003 (ip), vehicle: saline with Tween-80.
[3] abbreviates: dose: 100.0 mg/kg/injection, schedule: Q01DX001 (ip), vehicle: other.
Setting [4] is: dose: 200.0 mg/kg/injection, schedule: Q01DX001 (ip), vehicle: other.
Setting [5] is: dose: 400.0 mg/kg/injection, schedule: Q01DX001 (ip), vehicle: other.

For `C/C(=N/NC(N)=O)C1CC2CCC1C2` (centres undefined), the T/C is, setting by setting: under setting [1], 98 % of control; (dose: 100.0 mg/kg/injection, schedule: Q01DX009 (ip), vehicle: gum acacia) 102 % of control; (dose: 100.0 mg/kg/injection, schedule: Q04DX003 (ip), vehicle: gum acacia) 93 % of control; (dose: 200.0 mg/kg/injection, schedule: Q01DX001 (ip), vehicle: saline) 101 % of control; (dose: 200.0 mg/kg/injection, schedule: Q01DX009 (ip), vehicle: gum acacia) 94 % of control; (dose: 200.0 mg/kg/injection, schedule: Q04DX003 (ip), vehicle: gum acacia) 95 % of control. Further, the T/C (dose: 400.0 mg/kg/injection, schedule: Q04DX003 (ip), vehicle: gum acacia) is 90 % of control.
On to `O=NN(CCCl)C(=O)Nc1ccc2c(c1)CCCC2`, for which the T/C (dose: 31.0 mg/kg/injection, schedule: Q01DX001 (ip), vehicle: carboxymethylcellulose (CMC)) was 124 % of control; the T/C (dose: 84.0 mg/kg/injection, schedule: Q01DX001 (ip), vehicle: carboxymethylcellulose (CMC)) is 186 % of control; the T/C (dose: 119.0 mg/kg/injection, schedule: Q01DX001 (ip), vehicle: carboxymethylcellulose (CMC)) is 231 % of control; the T/C (dose: 125.0 mg/kg/injection, schedule: Q01DX001 (ip), vehicle: carboxymethylcellulose (CMC)) is 188 % of control; the T/C (dose: 178.0 mg/kg/injection, schedule: Q01DX001 (ip), vehicle: carboxymethylcellulose (CMC)) is 216 % of control; the T/C (dose: 187.0 mg/kg/injection, schedule: Q01DX001 (ip), vehicle: carboxymethylcellulose (CMC)) is 215 % of control. Moreover, the T/C runs as follows: (dose: 238.0 mg/kg/injection, schedule: Q01DX001 (ip), vehicle: carboxymethylcellulose (CMC)) 223 % of control; (dose: 250.0 mg/kg/injection, schedule: Q01DX001 (ip), vehicle: carboxymethylcellulose (CMC)) 89 % of control; (dose: 357.0 mg/kg/injection, schedule: Q01DX001 (ip), vehicle: carboxymethylcellulose (CMC)) 101 % of control.
Turning to `CC1(C)OC2COC(OCc3ccccc3)C(OCc3ccccc3)C2O1` (centres undefined), the T/C runs as follows: (dose: 100.0 mg/kg/injection, schedule: Q04DX003 (ip), vehicle: saline with Tween-80) 97 % of control; (dose: 200.0 mg/kg/injection, schedule: Q04DX003 (ip), vehicle: saline with Tween-80) 103 % of control; under setting [2], 97 % of control.
Consider `CCCCCCCCCCCCCCC[N+](C)(C)C`, for which the T/C (dose: 12.5 mg/kg/injection, schedule: Q01DX009 (ip), vehicle: saline) is 102 % of control and the T/C (dose: 25.0 mg/kg/injection, schedule: Q01DX009 (ip), vehicle: saline) is 93 % of control.
As for `OC/C=C\C1(O)CCCCC1`, the T/C reads like this: (dose: 75.0 mg/kg/injection, schedule: Q01DX001 (ip), vehicle: saline) 98 % of control; (dose: 150.0 mg/kg/injection, schedule: Q01DX001 (ip), vehicle: saline) 96 % of control.
Consider `CCOC(=O)CN1C(=O)NC2(CCc3ccccc3C2)C1=O` (centres undefined), for which, under setting [2], the T/C was 98 % of control.
Consider `C1CCC2[N-]CC3CCCCC3[N-]CC3CCCCC3[N-]CC3CCCCC3[N-]CC2C1.[Ni+2].[O-][Cl+3]([O-])([O-])O` (centres undefined), for which the T/C runs as follows: (dose: 12.5 mg/kg/injection, schedule: Q04DX002 (ip), vehicle: saline with Tween-80) 101 % of control; (dose: 25.0 mg/kg/injection, schedule: Q04DX002 (ip), vehicle: saline with Tween-80) 108 % of control; (dose: 50.0 mg/kg/injection, schedule: Q04DX002 (ip), vehicle: saline with Tween-80) 111 % of control.
With `NC(=S)Nc1c(Cl)cc(Cl)cc1Cl`, the T/C runs as follows: (dose: 25.0 mg/kg/injection, schedule: Q01DX009 (ip), vehicle: Klucel (hydroxypropylcellulose) (HPC)) 94 % of control; (dose: 50.0 mg/kg/injection, schedule: Q01DX009 (ip), vehicle: Klucel (hydroxypropylcellulose) (HPC)) 108 % of control; (dose: 100.0 mg/kg/injection, schedule: Q01DX009 (ip), vehicle: Klucel (hydroxypropylcellulose) (HPC)) 94 % of control and 107 % of control.
On to `CCCCCCCC[N+](CC)(CC)CCOC(=O)C(C1CCCC1)C1CCCC1`, for which the T/C by setting is: (dose: 0.25 mg/kg/injection, schedule: Q01DX015 (ip), vehicle: saline) 91 % of control; (dose: 0.5 mg/kg/injection, schedule: Q01DX015 (ip), vehicle: saline) 91 % of control; (dose: 1.0 mg/kg/injection, schedule: Q01DX015 (ip), vehicle: saline) 88 % of control; (dose: 1.25 mg/kg/injection, schedule: Q01DX009 (ip), vehicle: saline) 95 % of control; (dose: 2.0 mg/kg/injection, schedule: Q01DX015 (ip), vehicle: saline) 86 % of control; (dose: 2.5 mg/kg/injection, schedule: Q01DX009 (ip), vehicle: saline) 102 % of control. In addition, the T/C (dose: 2.5 mg/kg/injection, schedule: Q04DX003 (ip), vehicle: saline) was 94 % of control and the T/C (dose: 5.0 mg/kg/injection, schedule: Q04DX003 (ip), vehicle: saline) was 94 % of control.
For `CCOC(=O)c1cc(Br)cc(Br)c1N/N=[N+](\C)[O-]`, the T/C by setting is: (dose: 50.0 mg/kg/injection, schedule: Q01DX009 (ip), vehicle: saline with Tween-80) 105 % of control; (dose: 100.0 mg/kg/injection, schedule: Q01DX009 (ip), vehicle: saline with Tween-80) 98 % of control; (dose: 200.0 mg/kg/injection, schedule: Q01DX009 (ip), vehicle: saline with Tween-80) 110 % of control.
As for `O=C(O)c1c(O)c(Br)cc(Br)c1O`, the T/C under setting [3] is 109 % of control, the T/C under setting [4] is 104 % of control and the T/C under setting [5] is 90 % of control.
As for `O=[N+]([O-])c1ccc2cnn(CSP(=S)(c3ccccc3)c3ccccc3)c2c1`, the T/C is 93 % of control under setting [3], 101 % of control under setting [4] and 101 % of control under setting [5].
In the case of `O=C(NCCO)Nc1cccc2c1CCCC2`, the T/C (dose: 100.0 mg/kg/injection, schedule: Q04DX002 (ip), vehicle: saline with Tween-80) is 108 % of control; the T/C (dose: 200.0 mg/kg/injection, schedule: Q04DX002 (ip), vehicle: saline with Tween-80) is 104 % of control; the T/C (dose: 400.0 mg/kg/injection, schedule: Q04DX002 (ip), vehicle: saline with Tween-80) is 87 % of control.
For the compound `c1nnc(NCNc2nncs2)s1`, the T/C reads like this: (dose: 2.6 mg/kg/injection, schedule: Q01DX009 (ip), vehicle: Klucel (hydroxypropylcellulose) (HPC)) 115 % of control; (dose: 6.0 mg/kg/injection, schedule: Q01DX009 (ip), vehicle: Klucel (hydroxypropylcellulose) (HPC)) 124 % of control; (dose: 7.5 mg/kg/injection, schedule: Q01DX009 (ip), vehicle: saline) 122 % of control; (dose: 12.0 mg/kg/injection, schedule: Q04DX003 (ip), vehicle: Klucel (hydroxypropylcellulose) (HPC)) 121 % of control; (dose: 15.0 mg/kg/injection, schedule: Q01DX009 (ip), vehicle: saline) 120 % of control; (dose: 18.0 mg/kg/injection, schedule: Q04DX003 (ip), vehicle: Klucel (hydroxypropylcellulose) (HPC)) 122 % of control. In addition, the T/C is, setting by setting: (dose: 19.0 mg/kg/injection, schedule: Q01DX009 (ip), vehicle: saline) 154 % of control; (dose: 20.0 mg/kg/injection, schedule: Q01DX009 (ip), vehicle: Klucel (hydroxypropylcellulose) (HPC)) 109 % of control; (dose: 30.0 mg/kg/injection, schedule: Q01DX009 (ip), vehicle: Klucel (hydroxypropylcellulose) (HPC)) 95 % of control; (dose: 30.0 mg/kg/injection, schedule: Q01DX009 (ip), vehicle: saline) 166 % of control; (dose: 45.0 mg/kg/injection, schedule: Q01DX009 (ip), vehicle: Klucel (hydroxypropylcellulose) (HPC)) 87 % of control; (dose: 45.0 mg/kg/injection, schedule: Q01DX009 (ip), vehicle: saline) 114 % of control. In addition, the T/C runs as follows: (dose: 50.0 mg/kg/injection, schedule: Q01DX001 (ip), vehicle: saline) 110 % of control; (dose: 50.0 mg/kg/injection, schedule: Q04DX003 (ip), vehicle: saline) 111 % of control; (dose: 60.0 mg/kg/injection, schedule: Q01DX009 (ip), vehicle: saline) 115 % of control; under setting [1], 117 % of control; (dose: 200.0 mg/kg/injection, schedule: Q04DX003 (ip), vehicle: saline) 167 % of control and 168 % of control; (dose: 300.0 mg/kg/injection, schedule: Q04DX003 (ip), vehicle: Klucel (hydroxypropylcellulose) (HPC)) 106 % of control. Also, the T/C (dose: 300.0 mg/kg/injection, schedule: Q04DX003 (ip), vehicle: saline) is 113 % of control.
